Columns and labels:
[1] = Chemical hydrolysis in PBS, pH 7.3; format: physicochemical; conditions: PBS pH 7.3, 37 °C; for t1/2(1) PBS, pH=7.3: removal of first masking unit (half-lives of 3); for t1/2(2) PBS, pH=7.3: second hydrolysis step, half-lives of intermediate 4 to give d4TTP 19
Protocol: Stock solutions (50 mM in DMSO-d6) of the appropriate compounds were prepared. After dilution of 11 μl with 100 μl Millipore water and 189 μl DMSO-d6 to 1.9 mM hydrolysis solutions the reaction was started by the addition of 300 μl PBS (50 mM, pH 7.3). The solution was incubated at 37 °C in a thermomixer. An initial aliquot (25 μl) was taken directly and analysed by analytical HPLC at 265–266 nm. Further aliquots were taken for monitoring the kinetic hydrolysis. The exponential decay curves (pseudo-first order) based on absolute integral values were calculated with commercially available software (OriginPro 9.0G) and yielded the half-lives t1/2(1) and t1/2(2) of the prodrugs via one determination.

pig liver esterase (PLE) = test: Enzymatic hydrolysis with pig liver esterase (PLE) in PBS; format: in vitro ADME; conditions: PLE in PBS pH 7.3, 37 °C; for t1/2(1) PLE: removal of first masking unit (half-lives of 3); for t1/2(2) PLE: second hydrolysis step, half-lives of intermediate 4
Protocol: Furthermore, 140 μl of the 6.0 mM solution was diluted with 105 μl DMSO-d6 and 700 μl 50 mM PBS buffer. The reaction was started by addition of 52.5 μl of PLE in PBS buffer (3 mg ml^−1) and the mixture was incubated at 37 °C in a thermomixer. At different times, aliquots (125 μl) were taken and treated as follows: (a) for 3a–g,l,m and 4a,e the reaction was stopped by addition to 132.5 μl MeOH. […] (b) For 3h,i,k,n and 4j, the sample was directly frozen in liquid nitrogen.

HIV-1(IIIB) = test: Anti-HIV activity assay, HIV-1 in wild-type CEM/0 cells; format: cell-based; conditions: HIV-induced giant cell formation, mean±s.d., n=2–3
Protocol: (§1) Inhibition of HIV-1(IIIB)- and HIV-2(ROD)-induced cytopathicity in wild-type CEM/0 and TK-deficient CEM/TK^− cell cultures was measured in microtitre 96-well plates containing ∼3 × 10^5 CEM cells ml^−1 infected with 100 CCID50 of HIV per millilitre and containing appropriate dilutions of the test compounds. After 4−5 days of incubation at 37 °C in a CO2-controlled humidified atmosphere, CEM giant (syncytium) cell formation was examined microscopically. The EC50 (50% effective concentration) was defined as the compound concentration required to inhibit HIV-induced giant cell formation by 50%.

HIV-2(ROD) [2] = test: Anti-HIV activity assay, HIV-2 in wild-type CEM/0 cells; format: cell-based; conditions: wild-type CEM cells, HIV-induced giant cell formation; mean±s.d., n=2–3; read-out: EC50 CEM HIV-2
Protocol: as §1

HIV-2(ROD) [3] = test: Anti-HIV activity assay, HIV-2 in TK-deficient CEM/TK− cells; format: cell-based; conditions: thymidine kinase-deficient CEM/TK− cells; mean±s.d., n=2–3
Protocol: as §1

CD4+ T-cell (CEM) = test: Cytotoxicity: inhibition of CEM cell proliferation; format: cell-based, human; conditions: 50% cytostatic concentration, mean±s.d., n=2–3
[4] = Enzyme-catalysed hydrolysis in CEM cell extracts; conditions: for t1/2(1) CEM: human CEM cell extract, 37 °C
Protocol: The hydrolysis mixtures were analysed by means of analytical RP-18-HPLC.
A volume of 10 μl of the appropriate 50 mM DMSO-d6 stock solution was diluted to 6.0 mM hydrolysis solution by addition of 73.3 μl DMSO-d6. Seven different samples including 10 μl water and 10 μl hydrolysis solution were prepared. The reaction was started by addition of 50 μl human CEM cell extract and the mixture was incubated at 37 °C for different time periods of hydrolysis. The work-up depended on the particular compound: (a) for 3a–f,l,m,p and 4a,e the reactions were stopped by addition of 150 μl MeOH. The solution was kept on ice for 5 min followed by centrifugation for 5 min (13,000 r.p.m.). The supernatants were filtered (Chromafil RC-20/15 MS, 0.2 μm) and stored in liquid nitrogen. (b) For 3g–i,k,n and 4j, the samples were directly frozen in liquid nitrogen. The solution was defrosted followed by ultrasonication for 10 min. After centrifugation for 5 min the supernatants were filtered (Chromafil AO-20/3, 0.2 μm) and stored at −196 °C. (c) For 3j the mixture was diluted with 70 μl THF (HPLC grade) and frozen in liquid nitrogen followed by defrosting, ultrasonication, centrifugation, filtration and stored as described for (b). Samples were defrosted and 50–80 μl were subjected to HPLC analysis.
Human CD4^+ T-lymphocyte CEM cells were grown in RPMI-1640-based cell culture medium to a final density of ∼3·10^6 cells ml^−1. Then, cells were centrifuged for 10 min at 1,250 r.p.m. at 4 °C, washed twice with cold PBS and the pellet was resuspended at 10^8 cells ml^−1 and sonicated (Hielscher Ultrasound Techn., 100% amplitude, three·times for 10 s) to destroy cell integrity. The resulting cell suspension was then centrifuged at 10,000 r.p.m. to remove cell debris, and the supernatant divided into aliquots before being frozen at −80 °C and used.

| Compound | t1/2(1) PBS, pH=7.3 [1] | t1/2(2) PBS, pH=7.3 [1] | t1/2(1) PLE (pig liver esterase (PLE)) | t1/2(2) PLE (pig liver esterase (PLE)) | EC50 (HIV-1(IIIB)) | EC50 (HIV-2(ROD) [2]) | EC50 (HIV-2(ROD) [3]) | t1/2(1) CEM [4] | CC50 (CD4+ T-cell (CEM)) | t1/2 in cell extracts ([4]; degradation of the nucleotide in CEM cell extracts) |
| --- | --- | --- | --- | --- | --- | --- | --- | --- | --- | --- |
| CC(=O)Oc1ccc(COP(=O)(OCc2ccc(OC(C)=O)cc2)OP(=O)(O)OP(=O)(O)OC[C@@H]2C=C[C@H](n3cc(C)c(=O)[nH]c3=O)O2)cc1 [3a, γ-Bis-(4-acetyloxybenzyl)-d4TTP] | 18 h | 75 h | 1.9 h | 71 h | 430 ± 250 nM | 720 ± 160 nM | > 10000 nM | 0.050 h | 63000 ± 2000 nM |  |
| CCC(=O)Oc1ccc(COP(=O)(OCc2ccc(OC(=O)CC)cc2)OP(=O)(O)OP(=O)(O)OC[C@@H]2C=C[C@H](n3cc(C)c(=O)[nH]c3=O)O2)cc1 [3b, γ-Bis-(4-propanoyloxybenzyl)-d4TTP] | 17 h | 150 h | 0.42 h | 33 h | 460 ± 210 nM | 1160 ± 150 nM | > 10000 nM | 0.12 h | 57000 ± 6000 nM |  |
| CCCCCCCCCCCCCCCCCC(=O)Oc1ccc(COP(=O)(OCc2ccc(OC(=O)CCCCCCCCCCCCCCCCC)cc2)OP(=O)(O)OP(=O)(O)OC[C@@H]2C=C[C@H](n3cc(C)c(=O)[nH]c3=O)O2)cc1 [3j, γ-Bis-(4-octadecanoyloxybenzyl)-d4TTP] | 50 h | 583 h | 37 h |  | 170 nM | 310 nM | 280 ± 40 nM | 13 h | 29000 ± 9000 nM |  |
| CCCCOC(=O)N(C)CCN(C)C(=O)Oc1ccc(COP(=O)(OCc2ccc(OC(=O)N(C)CCN(C)C(=O)OCCCC)cc2)OP(=O)(O)OP(=O)(O)OCC2C=CC(n3cc(C)c(=O)[nH]c3=O)O2)cc1 (stereo not shown) [3o, γ-Bis-(4-(butyl-ethane-1,2-diylbis(methylcarbamate))-oxybenzyl)-d4TTP] | 27 h |  |  |  |  |  |  |  |  |  |
| CCCCCCCCOC(=O)N(C)CCN(C)C(=O)Oc1ccc(COP(=O)(OCc2ccc(OC(=O)N(C)CCN(C)C(=O)OCCCCCCCC)cc2)OP(=O)(O)OP(=O)(O)OCC2C=CC(n3cc(C)c(=O)[nH]c3=O)O2)cc1 (stereo not shown) [3p, γ-Bis-(4-(octyl-ethane-1,2-diylbis(methylcarbamate))-oxybenzyl)-d4TTP] | 48 h |  |  |  |  |  |  | 5.6 h |  |  |
| CCCCCCCCCCCCOC(=O)N(C)CCN(C)C(=O)Oc1ccc(COP(=O)(OCc2ccc(OC(=O)N(C)CCN(C)C(=O)OCCCCCCCCCCCC)cc2)OP(=O)(O)OP(=O)(O)OCC2C=CC(n3cc(C)c(=O)[nH]c3=O)O2)cc1 (stereo not shown) [3q, γ-Bis-(4-(dodecyl-ethane-1,2-diylbis(methylcarbamate))-oxybenzyl)-d4TTP] | 48 h |  |  |  |  |  |  |  |  |  |
| Cc1cn([C@H]2C=C[C@@H](COP(=O)(O)OP(=O)(O)OP(=O)(O)O)O2)c(=O)[nH]c1=O [d4TTP 19, reference compound] |  |  |  |  |  |  |  |  |  | 0.63 h |

More lines, main results first:

| t1/2(1) PBS, pH=7.3 [1] | t1/2(2) PBS, pH=7.3 [1] | t1/2(1) PLE (pig liver esterase (PLE)) | t1/2(2) PLE (pig liver esterase (PLE)) | EC50 (HIV-1(IIIB)) | EC50 (HIV-2(ROD) [2]) | EC50 (HIV-2(ROD) [3]) | t1/2(1) CEM [4] | Compound | CC50 (CD4+ T-cell (CEM)) | t1/2 in cell extracts ([4]; degradation of the nucleotide in CEM cell extracts) |
| --- | --- | --- | --- | --- | --- | --- | --- | --- | --- | --- |
| 22 h | 270 h | 0.063 h | 7.7 h | 400 nM | 1050 ± 300 nM | > 10000 nM | 0.43 h | CCCCC(=O)Oc1ccc(COP(=O)(OCc2ccc(OC(=O)CCCC)cc2)OP(=O)(O)OP(=O)(O)OC[C@@H]2C=C[C@H](n3cc(C)c(=O)[nH]c3=O)O2)cc1 [3c, γ-Bis-(4-pentanoyloxybenzyl)-d4TTP] | 58000 ± 3000 nM |  |
| 26 h | 350 h | 0.013 h | 1.6 h | 360 ± 60 nM | 940 ± 160 nM | 10000 nM | 0.98 h | CCCCCCC(=O)Oc1ccc(COP(=O)(OCc2ccc(OC(=O)CCCCCC)cc2)OP(=O)(O)OP(=O)(O)OC[C@@H]2C=C[C@H](n3cc(C)c(=O)[nH]c3=O)O2)cc1 [3d, γ-Bis-(4-heptanoyloxybenzyl)-d4TTP] | 74000 ± 2000 nM |  |
| 44 h | 350 h | 0.082 h | 3.0 h | 250 ± 70 nM | 330 ± 30 nM | 500 ± 140 nM | 2.8 h | CCCCCCCCCC(=O)Oc1ccc(COP(=O)(OCc2ccc(OC(=O)CCCCCCCCC)cc2)OP(=O)(O)OP(=O)(O)OC[C@@H]2C=C[C@H](n3cc(C)c(=O)[nH]c3=O)O2)cc1 [3f, γ-Bis-(4-decanoyloxybenzyl)-d4TTP] | 34000 ± 5000 nM |  |
| 68 h | 410 h | 0.95 h | 8.3 h | 210 ± 10 nM | 270 ± 60 nM | 720 ± 160 nM | 2.2 h | CCCCCCCCCCCC(=O)Oc1ccc(COP(=O)(OCc2ccc(OC(=O)CCCCCCCCCCC)cc2)OP(=O)(O)OP(=O)(O)OC[C@@H]2C=C[C@H](n3cc(C)c(=O)[nH]c3=O)O2)cc1 [3g, γ-Bis-(4-dodecanoyloxybenzyl)-d4TTP] | 26000 nM |  |
| 90 h | 355 h | 30 h |  | 500 ± 140 nM | 1100 ± 230 nM | 1630 ± 520 nM | 4.6 h | CCCCCCCCCCCCCC(=O)Oc1ccc(COP(=O)(OCc2ccc(OC(=O)CCCCCCCCCCCCC)cc2)OP(=O)(O)OP(=O)(O)OC[C@@H]2C=C[C@H](n3cc(C)c(=O)[nH]c3=O)O2)cc1 [3h, γ-Bis-(4-tetradecanoyloxybenzyl)-d4TTP] | 28000 ± 7000 nM |  |
| 73 h | 462 h | 33 h |  | 620 ± 300 nM | 660 ± 80 nM | 720 ± 160 nM | 5.3 h | CCCCCCCCCCCCCCCC(=O)Oc1ccc(COP(=O)(OCc2ccc(OC(=O)CCCCCCCCCCCCCCC)cc2)OP(=O)(O)OP(=O)(O)OC[C@@H]2C=C[C@H](n3cc(C)c(=O)[nH]c3=O)O2)cc1 [3i, γ-Bis-(4-hexadecanoyloxybenzyl)-d4TTP] | 61000 ± 3000 nM |  |
| 27 h | 92 h | 42 h |  | 300 ± 10 nM | 470 ± 100 nM | 930 ± 470 nM | 4.3 h | CCCCCCCC/C=C\CCCCCCCC(=O)Oc1ccc(COP(=O)(OCc2ccc(OC(=O)CCCCCCC/C=C\CCCCCCCC)cc2)OP(=O)(O)OP(=O)(O)OC[C@@H]2C=C[C@H](n3cc(C)c(=O)[nH]c3=O)O2)cc1 [3k, γ-Bis(4-(Z)-octadec-9-enoyloxybenzyl)-d4TTP] | 25000 ± 1000 nM |  |
|  | 95 h |  | 108 h |  |  |  | 0.040 h | CC(=O)Oc1ccc(COP(=O)(O)OP(=O)(O)OP(=O)(O)OC[C@@H]2C=C[C@H](n3cc(C)c(=O)[nH]c3=O)O2)cc1 [4a, γ-Mono-(4-acetyloxybenzyl)-d4TTP] |  |  |
|  | 237 h |  | 1.5 h |  |  |  | 1.8 h | CCCCCCCCC(=O)Oc1ccc(COP(=O)(O)OP(=O)(O)OP(=O)(O)OC[C@@H]2C=C[C@H](n3cc(C)c(=O)[nH]c3=O)O2)cc1 [4e, γ-Mono-(4-nonanoyloxybenzyl)-d4TTP] |  |  |
|  | 637 h |  | 57 h |  |  |  | 4.6 h | CCCCCCCCCCCCCCCCCC(=O)Oc1ccc(COP(=O)(O)OP(=O)(O)OP(=O)(O)OC[C@@H]2C=C[C@H](n3cc(C)c(=O)[nH]c3=O)O2)cc1 [4j, γ-Mono-(4-octadecanoyloxybenzyl)-d4TTP] |  |  |

— paper PMC4640093, “Lipophilic prodrugs of nucleoside triphosphates as biochemical probes and potential antivirals” (Nature Communications, 2015)
